Results published in patent publication US20170008888A1 (KYORIN PHARMACEUTICAL CO., LTD., priority 2014, published 2017).
Like-named read-outs stand apart in the source and are kept apart here.

Tests used:
Assay type in all cases: binding
[1] = test system: AurB or AurC; assay: Probe-based (AX9989) kinase profiling in Jurkat lysate: AurB or AurC
Outline: (§1)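 Gel-filtered Jurkat lysate (HEPES pH 7.5, 20 mM MnCl2, 5 mg/ml) was pre-incubated 15 min with compound at room temperature, then labelled with 5 μM acyl-phosphate ATP probe AX9989. Tryptic probe-labelled active-site peptides were streptavidin-captured and quantified by LC/MS. Percent inhibition reflected the decrease in labelled-peptide intensity versus no compound.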

[2] = target: T1, ERK5 (Homo sapiens, UniProt Q13164); assay: Probe-based (AX9989 acyl phosphate ATP probe) kinase profiling in Jurkat lysate: ERK5; conditions: for IC50: Jurkat lysate
T1 construct: screened for activity against several kinases in Jurkat cells; endogenous in cells; host or cells: Jurkat cell lysate
T1 sequence (Q13164 whole entry): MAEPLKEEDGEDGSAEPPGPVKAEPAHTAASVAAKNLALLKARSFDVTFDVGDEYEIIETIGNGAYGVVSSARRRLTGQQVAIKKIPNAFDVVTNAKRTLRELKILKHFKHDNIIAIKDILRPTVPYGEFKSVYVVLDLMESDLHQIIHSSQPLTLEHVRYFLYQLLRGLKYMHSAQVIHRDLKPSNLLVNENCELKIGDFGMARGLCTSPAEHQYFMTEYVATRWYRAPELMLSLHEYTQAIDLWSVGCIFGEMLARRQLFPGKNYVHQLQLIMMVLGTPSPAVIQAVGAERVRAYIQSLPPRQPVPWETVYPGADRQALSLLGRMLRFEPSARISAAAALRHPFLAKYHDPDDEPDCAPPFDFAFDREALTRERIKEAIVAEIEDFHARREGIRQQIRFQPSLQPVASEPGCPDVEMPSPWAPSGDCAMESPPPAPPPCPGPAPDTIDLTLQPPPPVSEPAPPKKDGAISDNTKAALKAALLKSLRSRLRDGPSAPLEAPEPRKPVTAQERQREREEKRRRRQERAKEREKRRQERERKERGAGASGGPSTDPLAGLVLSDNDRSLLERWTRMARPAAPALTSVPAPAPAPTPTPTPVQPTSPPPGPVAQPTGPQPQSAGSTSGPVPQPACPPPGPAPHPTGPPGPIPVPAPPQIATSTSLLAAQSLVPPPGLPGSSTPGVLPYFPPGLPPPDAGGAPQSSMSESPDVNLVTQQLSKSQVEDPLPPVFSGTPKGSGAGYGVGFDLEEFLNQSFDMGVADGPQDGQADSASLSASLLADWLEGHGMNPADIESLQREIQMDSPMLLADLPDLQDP
Outline: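 Gel-filtered Jurkat lysate (5 mg/ml, 20 mM MnCl2) preincubated 15 min at room temperature with compound, then labelled with 5 μM AX9989 acyl phosphate ATP probe. Probe-labelled ERK5 active-site peptides quantified by LC/MS after trypsin digestion and streptavidin capture; IC50 calculated from percent inhibition at the screening concentration.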

[3] = target: T2, TAO2 (Homo sapiens, UniProt Q9UL54); assay: Probe-based (AX9989) kinase profiling in Jurkat lysate: TAO2
T2 construct: screened for activity against several kinases in Jurkat cells; endogenous in cells; host or cells: Jurkat cell lysate
T2 sequence (Q9UL54 1-1235): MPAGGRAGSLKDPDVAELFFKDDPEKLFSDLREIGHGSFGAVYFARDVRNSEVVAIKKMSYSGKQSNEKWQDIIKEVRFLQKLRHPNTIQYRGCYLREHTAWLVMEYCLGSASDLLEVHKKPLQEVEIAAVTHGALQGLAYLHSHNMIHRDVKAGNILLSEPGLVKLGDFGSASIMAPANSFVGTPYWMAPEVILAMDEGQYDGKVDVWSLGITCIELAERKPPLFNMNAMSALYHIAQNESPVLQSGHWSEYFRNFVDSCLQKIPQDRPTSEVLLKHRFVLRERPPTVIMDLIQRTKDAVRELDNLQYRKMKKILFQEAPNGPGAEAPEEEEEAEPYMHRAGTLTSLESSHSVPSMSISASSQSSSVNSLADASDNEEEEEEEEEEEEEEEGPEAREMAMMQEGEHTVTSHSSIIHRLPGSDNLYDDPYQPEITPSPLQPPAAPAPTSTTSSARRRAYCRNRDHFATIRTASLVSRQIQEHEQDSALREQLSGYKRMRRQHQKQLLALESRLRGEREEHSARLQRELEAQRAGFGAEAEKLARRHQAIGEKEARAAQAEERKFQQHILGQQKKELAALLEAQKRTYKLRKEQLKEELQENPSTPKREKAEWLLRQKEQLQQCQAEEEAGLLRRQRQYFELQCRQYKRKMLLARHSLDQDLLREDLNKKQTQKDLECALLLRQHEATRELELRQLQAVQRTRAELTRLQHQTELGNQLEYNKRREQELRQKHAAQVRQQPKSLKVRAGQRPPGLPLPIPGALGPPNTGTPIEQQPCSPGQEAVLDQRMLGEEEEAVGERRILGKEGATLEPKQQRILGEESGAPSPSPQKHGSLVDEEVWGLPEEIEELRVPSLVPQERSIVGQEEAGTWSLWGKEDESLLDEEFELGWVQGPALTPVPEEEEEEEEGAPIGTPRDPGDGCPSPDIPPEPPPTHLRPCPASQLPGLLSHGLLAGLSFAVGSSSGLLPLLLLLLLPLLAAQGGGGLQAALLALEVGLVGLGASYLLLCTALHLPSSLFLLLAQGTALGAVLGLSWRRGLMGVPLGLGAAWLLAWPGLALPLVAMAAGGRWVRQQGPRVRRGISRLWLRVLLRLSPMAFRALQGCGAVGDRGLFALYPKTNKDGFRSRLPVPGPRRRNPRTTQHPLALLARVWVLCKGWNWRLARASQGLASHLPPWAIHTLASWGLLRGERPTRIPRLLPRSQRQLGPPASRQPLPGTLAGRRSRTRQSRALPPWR
Outline: as §1

[4] = target: T3, AurA (Homo sapiens, UniProt O14965); assay: Probe-based (AX9989) kinase profiling in Jurkat lysate: AurA
T3 construct: screened for activity against several kinases in Jurkat cells; endogenous in cells; host or cells: Jurkat cell lysate
T3 sequence (O14965 1-403): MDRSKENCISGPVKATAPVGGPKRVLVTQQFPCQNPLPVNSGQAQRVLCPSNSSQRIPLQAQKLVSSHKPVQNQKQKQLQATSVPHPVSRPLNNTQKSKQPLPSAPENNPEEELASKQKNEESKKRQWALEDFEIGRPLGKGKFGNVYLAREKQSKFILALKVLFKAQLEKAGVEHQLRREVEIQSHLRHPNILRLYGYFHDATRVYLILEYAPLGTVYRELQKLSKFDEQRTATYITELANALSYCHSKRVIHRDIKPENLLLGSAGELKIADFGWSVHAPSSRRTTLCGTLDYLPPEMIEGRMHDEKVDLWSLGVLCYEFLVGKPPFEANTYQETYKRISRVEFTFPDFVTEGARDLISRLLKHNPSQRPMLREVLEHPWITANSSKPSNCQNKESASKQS
Outline: as §1

[5] = test system: AMPKa1 or AMPKa2; assay: Probe-based (AX9989) kinase profiling in Jurkat lysate: AMPKa1 or AMPKa2
Outline: as §1

[6] = test system: ABL or ARG; assay: Probe-based (AX9989) kinase profiling in Jurkat lysate: ABL or ARG
Outline: as §1

[7] = target: T4, ACK (Homo sapiens, UniProt Q07912); assay: Probe-based (AX9989) kinase profiling in Jurkat lysate: ACK
T4 construct: screened for activity against several kinases in Jurkat cells; endogenous in cells; host or cells: Jurkat cell lysate
T4 sequence (Q07912 whole entry): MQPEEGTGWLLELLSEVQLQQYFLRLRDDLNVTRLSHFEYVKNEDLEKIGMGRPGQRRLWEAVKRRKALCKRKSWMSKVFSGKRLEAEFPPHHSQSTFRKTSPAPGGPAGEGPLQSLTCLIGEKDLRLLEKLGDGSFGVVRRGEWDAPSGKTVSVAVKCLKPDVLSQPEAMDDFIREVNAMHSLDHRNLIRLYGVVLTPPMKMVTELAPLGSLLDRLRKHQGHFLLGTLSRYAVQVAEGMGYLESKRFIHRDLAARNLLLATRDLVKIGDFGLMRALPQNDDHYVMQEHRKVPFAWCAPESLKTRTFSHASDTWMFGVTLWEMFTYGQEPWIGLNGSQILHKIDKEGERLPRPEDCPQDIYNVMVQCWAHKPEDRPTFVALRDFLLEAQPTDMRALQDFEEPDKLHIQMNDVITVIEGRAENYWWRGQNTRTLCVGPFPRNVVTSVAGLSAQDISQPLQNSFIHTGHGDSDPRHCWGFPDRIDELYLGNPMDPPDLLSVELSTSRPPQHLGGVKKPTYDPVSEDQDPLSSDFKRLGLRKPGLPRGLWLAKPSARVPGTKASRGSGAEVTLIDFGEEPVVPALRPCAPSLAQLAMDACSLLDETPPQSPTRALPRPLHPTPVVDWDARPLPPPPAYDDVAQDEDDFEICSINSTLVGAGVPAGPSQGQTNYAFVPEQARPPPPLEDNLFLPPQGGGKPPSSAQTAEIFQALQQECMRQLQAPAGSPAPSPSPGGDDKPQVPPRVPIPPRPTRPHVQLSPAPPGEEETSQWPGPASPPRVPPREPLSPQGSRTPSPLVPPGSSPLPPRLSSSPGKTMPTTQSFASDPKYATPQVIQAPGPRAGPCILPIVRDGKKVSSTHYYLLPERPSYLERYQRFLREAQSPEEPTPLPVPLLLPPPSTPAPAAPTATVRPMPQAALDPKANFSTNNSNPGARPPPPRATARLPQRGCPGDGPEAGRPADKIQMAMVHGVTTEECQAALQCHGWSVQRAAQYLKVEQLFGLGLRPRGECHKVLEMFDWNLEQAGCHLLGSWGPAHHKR
Outline: as §1

[8] = target: T5, BRD4 bromodomain domain I [BRD4(1)] (Homo sapiens, UniProt O60885); assay: BRD4 bromodomain domain 1 inhibition assay (TR-FRET); conditions: screening concentration 10 μM
T5 construct: BRD4 bromodomain domain I [BRD4(1)]; purchased Cayman Chemicals
Experimental: The inhibitory activity of test compounds on the bromodomain, BRD4 bromodomain domain I [BRD4(1)], were determined via TR-FRET after a slight modification of the manufacturer's protocol (Cayman Chemicals, Ann Arbor, Mich.). Briefly, compounds were diluted to a 20× ([…]) concentration in DMSO. 100 nL of 20× compounds were then dry stamped into triplicate wells of black, low volume 384 well plates (Aurora Biotechnologies, Carlsbad, Calif.) using the Mosquito liquid handler (TPP Labtech, Melbourn, UK). 20× compounds were then diluted to a 4× (40 μM) concentration in Assay Buffer to result in 2% DMSO content. […] JQ1 at 10 μM or 0.5% DMSO final concentrations were used as the positive and negative controls, respectively, to set the assay window. The fluorescence was read in a time-resolved format on the Biotec Synergy 2 plate reader by exciting the signal at 340 nm and reading emissions at 620 and 670, using a 100 μs delay and 200 μs read window. […] Briefly, TR-FRET ratio values were normalized to the average TR-FRET ratio value given by 10 μM JQ1. […]

[9] = target: T6, JAK1 (Homo sapiens, UniProt P23458); assay: Probe-based (AX9989) kinase profiling in Jurkat lysate: JAK1
T6 construct: screened for activity against several kinases in Jurkat cells; endogenous in cells; host or cells: Jurkat cell lysate
T6 sequence (P23458 whole entry): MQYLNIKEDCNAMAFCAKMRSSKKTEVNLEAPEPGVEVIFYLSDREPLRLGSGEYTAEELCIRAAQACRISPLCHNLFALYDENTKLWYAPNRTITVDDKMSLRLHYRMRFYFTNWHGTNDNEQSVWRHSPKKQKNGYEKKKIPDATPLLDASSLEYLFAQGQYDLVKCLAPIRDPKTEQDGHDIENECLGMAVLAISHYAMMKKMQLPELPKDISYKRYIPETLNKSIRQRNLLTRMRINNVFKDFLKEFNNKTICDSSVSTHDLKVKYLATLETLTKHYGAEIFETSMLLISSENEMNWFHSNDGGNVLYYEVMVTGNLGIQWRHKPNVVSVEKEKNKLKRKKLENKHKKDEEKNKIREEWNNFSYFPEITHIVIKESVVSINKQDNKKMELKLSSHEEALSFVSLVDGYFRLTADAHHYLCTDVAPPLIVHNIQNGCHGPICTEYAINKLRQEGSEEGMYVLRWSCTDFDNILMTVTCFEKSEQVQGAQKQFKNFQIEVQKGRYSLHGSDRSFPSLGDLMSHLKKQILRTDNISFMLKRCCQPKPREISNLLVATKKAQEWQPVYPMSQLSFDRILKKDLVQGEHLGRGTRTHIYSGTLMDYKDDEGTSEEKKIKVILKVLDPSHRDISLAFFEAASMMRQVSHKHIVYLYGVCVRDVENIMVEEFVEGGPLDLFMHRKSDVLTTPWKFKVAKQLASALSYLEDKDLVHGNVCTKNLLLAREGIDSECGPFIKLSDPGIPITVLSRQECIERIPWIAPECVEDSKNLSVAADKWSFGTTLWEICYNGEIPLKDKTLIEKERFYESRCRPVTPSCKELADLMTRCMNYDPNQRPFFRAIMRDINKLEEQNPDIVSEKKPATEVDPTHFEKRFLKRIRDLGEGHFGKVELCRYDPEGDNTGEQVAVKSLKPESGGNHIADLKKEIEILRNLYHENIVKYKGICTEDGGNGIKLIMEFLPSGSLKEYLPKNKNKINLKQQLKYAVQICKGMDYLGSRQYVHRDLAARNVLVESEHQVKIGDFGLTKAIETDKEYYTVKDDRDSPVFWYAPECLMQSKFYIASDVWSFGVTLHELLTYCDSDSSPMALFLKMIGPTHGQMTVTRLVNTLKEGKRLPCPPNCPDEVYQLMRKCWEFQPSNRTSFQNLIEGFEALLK
Outline: as §1

[10] = calculated from percent inhibition of AX9989 labeling and the screening concentration
[11] = screening concentration 1.0 μM, read-out: Kinase inhibition % at indicated screening concentration: ERK5
[12] = screening concentration 1.0 μM, read-out: Kinase inhibition % at indicated screening concentration: TAO2
[13] = screening concentration 1.0 μM, read-out: Kinase inhibition % at indicated screening concentration: AurA
[14] = screening concentration 1.0 μM, read-out: Kinase inhibition % at indicated screening concentration: ACK
[15] = screening concentration 1.0 μM, read-out: Kinase inhibition % at indicated screening concentration: JAK1

SMILES | Kinase inhibition % at indicated screening concentration: AurB or AurC ([1]; screening concentration 1.0 μM) | IC50 [2, 10] | inhibition at 1 µM [2, 11] | inhibition at 1 µM [3, 12] | inhibition at 1 µM [4, 13] | Kinase inhibition % at indicated screening concentration: AMPKa1 or AMPKa2 ([5]; screening concentration 1.0 μM) | Kinase inhibition % at indicated screening concentration: ABL or ARG ([6]; screening concentration 1.0 μM) | inhibition at 1 µM [7, 14] | inhibition at 10 µM [8] | inhibition at 1 µM [9, 15] | other results
CN1CCC(c2ccc(Nc3cc4c(cn3)N(C)C(=O)c3ccccc3N4C)cc2)CC1 [Compound 92] | C (C is >50% to ≦75%) | ≤ 0.05 µM | > 90% | 50 to 75% | ≤ 35% | E (E is ≦35%) | E (E is ≦35%) | ≤ 35% | 70 to 85% | 35 to 50% | –
CC(=O)NC1CCC(Nc2cc3c(cn2)N(C)C(=O)c2ccccc2N3C)CC1 (stereo not drawn) [Compound 98] | E (E is ≦35%) | > 0.5 µM | 50 to 75% | ≤ 35% | ≤ 35% | E (E is ≦35%) | E (E is ≦35%) | ≤ 35% | < 70% | ≤ 35% | –
CN1C(=O)c2ccccc2N(C)c2cc(N[C@H]3CC[C@H](NS(C)(=O)=O)CC3)ncc21 [Compound 99] | E (E is ≦35%) | 0.101 to 0.5 µM | 75 to 90% | ≤ 35% | ≤ 35% | E (E is ≦35%) | E (E is ≦35%) | ≤ 35% | 70 to 85% | ≤ 35% | –
CCOc1cc(C(=O)NC2CCC(O)CC2)ccc1Nc1cc2c(cn1)N(C)C(=O)c1ccccc1N2C (stereo not drawn) [Compound 109] | E (E is ≦35%) | > 0.5 µM | 35 to 50% | ≤ 35% | ≤ 35% | E (E is ≦35%) | E (E is ≦35%) | ≤ 35% | < 70% | ≤ 35% | –
CCOc1cc(C(=O)N2CCCC(N)C2)ccc1Nc1cc2c(cn1)N(C)C(=O)c1occc1N2C (stereo not drawn) [Compound 113] | – | ≤ 0.05 µM | – | – | – | – | – | – | > 85% | – | Kinase inhibition % at indicated screening concentration: AurB or AurC ([1]; screening concentration 0.1 μM): E (E is ≦35%); inhibition at 0.1 µM ([2]; screening concentration 0.1 μM, read-out: Kinase inhibition % at indicated screening concentration: ERK5): > 90%; inhibition at 0.1 µM ([3]; screening concentration 0.1 μM, read-out: Kinase inhibition % at indicated screening concentration: TAO2): ≤ 35%; inhibition at 0.1 µM ([4]; screening concentration 0.1 μM, read-out: Kinase inhibition % at indicated screening concentration: AurA): ≤ 35%; Kinase inhibition % at indicated screening concentration: AMPKa1 or AMPKa2 ([5]; screening concentration 0.1 μM): E (E is ≦35%); Kinase inhibition % at indicated screening concentration: ABL or ARG ([6]; screening concentration 0.1 μM): E (E is ≦35%); inhibition at 0.1 µM ([7]; screening concentration 0.1 μM, read-out: Kinase inhibition % at indicated screening concentration: ACK): ≤ 35%; inhibition at 0.1 µM ([9]; screening concentration 0.1 μM, read-out: Kinase inhibition % at indicated screening concentration: JAK1): ≤ 35%
CCOc1cc(C(=O)N2CCOCC2)ccc1Nc1cc2c(cn1)N(C)C(=O)c1ccccc1O2 [Compound T81, 3-((2-ethoxy-4-(morpholine-4-carbonyl)phenyl)amino)-11-methylbenzo[f]pyrido[4,3-b][1,4]oxazepin-10(11H)-one] | – | – | – | – | – | – | – | – | < 70% | – | AurB or AurC Inhibition % at indicated screening concentration ([1]; screening concentration 1 μM): E (E is ≦35%); IC50 ([2]; calculated from percent inhibition and screening concentration, AX9989 probe): 0.101 to 0.5 µM; inhibition at 1 µM ([2]; screening concentration 1 μM, read-out: ERK5 Inhibition % at indicated screening concentration): 75 to 90%; inhibition at 1 µM ([3]; screening concentration 1 μM, read-out: TAO2 Inhibition % at indicated screening concentration): ≤ 35%; inhibition at 1 µM ([4]; screening concentration 1 μM, read-out: AurA Inhibition % at indicated screening concentration): ≤ 35%; AMPKa1 or AMPKa2 Inhibition % at indicated screening concentration ([5]; screening concentration 1 μM): E (E is ≦35%); ABL or ARG Inhibition % at indicated screening concentration ([6]; screening concentration 1 μM): E (E is ≦35%); inhibition at 1 µM ([7]; screening concentration 1 μM, read-out: ACK Inhibition % at indicated screening concentration): ≤ 35%; inhibition at 1 µM ([9]; screening concentration 1 μM, read-out: JAK1 Inhibition % at indicated screening concentration): ≤ 35%
